# From article PMC8342417, “The structure of an archaeal oligosaccharyltransferase provides insight into the strict exclusion of proline from the N-glycosylation sequon” (Communications Biology, 2021)
# Target: T1, AfAglB (AglB-L, A. fulgidus oligosaccharyltransferase) (Archaeoglobus fulgidus, UniProt O29867, G617C)
# T1 construct: gene aglB3; full length 868 residues; E. coli C43(DE3); C-terminal His10 cut by thrombin leaving ELALVPR; single-subunit membrane protein in DDM, then LCP
# Assay: X-ray crystal structure (LCP), […] Å
# Format: binding
# Conditions: ternary complex with disulfide-tethered peptide TAMRA-APY(Dab)VTASCR and Mn2+; pH 6.0; LLO donor site; from hydrolysis of native LLO mixture (C55 and C60) during crystallization, modelled as C60
# T1 sequence (O29867 whole entry G617C): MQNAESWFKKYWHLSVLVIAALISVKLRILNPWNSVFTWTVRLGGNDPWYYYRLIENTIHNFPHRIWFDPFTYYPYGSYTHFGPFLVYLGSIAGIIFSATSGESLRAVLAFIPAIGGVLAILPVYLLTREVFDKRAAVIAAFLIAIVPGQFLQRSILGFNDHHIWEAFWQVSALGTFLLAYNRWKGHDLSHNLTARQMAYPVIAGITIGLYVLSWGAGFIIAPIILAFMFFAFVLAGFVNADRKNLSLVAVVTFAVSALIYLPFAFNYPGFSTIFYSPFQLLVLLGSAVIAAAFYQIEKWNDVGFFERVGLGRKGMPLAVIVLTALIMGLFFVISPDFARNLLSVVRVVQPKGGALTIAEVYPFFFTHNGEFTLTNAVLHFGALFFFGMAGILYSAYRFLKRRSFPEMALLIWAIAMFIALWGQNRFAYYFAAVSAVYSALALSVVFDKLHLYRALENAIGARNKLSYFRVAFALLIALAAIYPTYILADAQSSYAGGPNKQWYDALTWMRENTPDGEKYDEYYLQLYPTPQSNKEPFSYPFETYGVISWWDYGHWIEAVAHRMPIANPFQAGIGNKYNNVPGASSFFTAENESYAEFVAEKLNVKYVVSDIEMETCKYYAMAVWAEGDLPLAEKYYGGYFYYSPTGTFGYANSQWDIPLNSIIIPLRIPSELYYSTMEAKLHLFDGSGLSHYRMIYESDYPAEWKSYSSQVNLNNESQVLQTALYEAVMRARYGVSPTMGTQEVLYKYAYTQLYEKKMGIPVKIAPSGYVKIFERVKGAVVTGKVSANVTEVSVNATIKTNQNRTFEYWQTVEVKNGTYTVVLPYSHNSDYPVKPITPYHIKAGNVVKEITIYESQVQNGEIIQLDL
compound,measurement,value
C/C(=C/CC/C(C)=C\CC/C(C)=C\CC/C(C)=C/CC/C(C)=C\CC/C(C)=C\CC[C@H](C)CCOP(=O)(O)O)CC/C=C(/C)CC/C=C(/C)CCCC(C)CCCC(C)CCCC(C)C (stereo partly shown) [dolichol-phosphate],"X-ray crystal structure (LCP), 2.7 Å","LLO binding site was occupied by a dolichol-phosphate, instead of an intact LLO"
